Laboratory results published in a melting point compilation (Tetko et al.; mined from patent text by program, amines drawn as free bases though some values may be those of a salt).

Row | melting point | SMILES
1 | 97 to 98 °C | CC(=O)OC(CF)c1sccc1S(N)(=O)=O (centres undefined)
2 | 206 to 208 °C | O=C(O)c1ccc(NCc2ccc(OCc3ccccc3)cc2)cc1
3 | 246 to 247 °C | CC(C)(C)OC(=O)c1ncn2c1cc(N1CCN(C(=O)OC(C)(C)C)CC1)c1cc(Cl)ccc12
4 | 86 to 89 °C | CCOC(=O)Cc1c(-c2ccccc2)nn2cccnc12
5 | 216 to 218 °C | CCCCNc1nc2cccc(C(=O)OC)c2n1Cc1ccccc1-c1ccccc1-c1nnn[nH]1
6 | 135 to 138 °C | CN1CCCC1=Nc1ncnc2c1ncn2[C@H]1C=C[C@@H](O)C1 (racemic)
7 | 267 to 270 °C | COC(=O)c1ccc(C(=O)NS(=O)(=O)c2ccccc2)cc1
8 | 184 to 185 °C | O=C(Nc1ccccc1-c1nnc(CSCCOc2ccccc2)o1)N1CCCC1
9 | 104 to 106 °C | O=C1C=C(CO)C(=O)N1
10 | > 250 °C | NC(C(=O)O)C(=CF)c1c[nH]c2ccc(O)cc12 (centres undefined)
11 | 139 to 140 °C | C=C(c1ccc(OC)cc1)c1sc(C)nc1C
12 | 106 to 108 °C | COC(=O)c1cc(Br)c(O)c(C(C)=O)c1
13 | 207 to 209 °C | C1=C(/C=C/c2ccccc2)CCN(Cc2n[nH]c3ccccc23)C1
14 | 124 to 126 °C | Cn1c(CCNC(=O)C(F)(F)F)cc2ccccc21
15 | 82 to 90 °C | CCOC(=O)C1C(=O)N(CC)c2cc3cc(C)oc3cc21 (centres undefined)
16 | 99 to 105 °C | CCCCCCCCCCCCCCCCCC(=O)OC[C@H]1OCC(=NO)[C@@H](O)[C@@H]1O
17 | 167 to 170 °C | CCCCc1nn(-c2cc(N)ccc2Cl)c(=O)n1Cc1ccc(-c2ccccc2S(=O)(=O)NC(C)(C)C)cc1F
18 | 97 to 99 °C | COc1ccc(C2=NN(C3CCN(S(=O)(=O)CCNCC(O)c4ccc(O)c(CO)c4)CC3)C(=O)[C@@H]3CC=CC[C@H]23)cc1OC (some centres undefined)
19 | 181 to 183 °C | Cc1cccc2c(=O)[nH]c(C3CCC(N(C)C)CC3)nc12 (centres undefined)
20 | 172 to 174 °C | CC(C#N)=C1CCN(c2ccc(N3C[C@H](CNC(=O)C(F)F)OC3=O)cc2F)CC1
21 | 149 to 150 °C | CCCCn1c(=O)c(NC(=O)Nc2cc(CO)ccc2C(C)(C)C)c(-c2cccc(OCc3cccnc3)c2)c2cccnc21
22 | 196 to 198 °C | CN(Cc1sc2c(=O)c(C(=O)NCc3ccc(Cl)cc3)cn(C)c2c1CO)CC(O)c1ccc2ccccc2n1 (centres undefined)
23 | 213 to 215 °C | O=C(O)c1ccc(Cc2ccc(O)cc2)cn1
24 | 215 to 216 °C | Cc1nc(N)sc1-c1ccnc(Nc2cccc(S(=O)(=O)N3CCOCC3)c2)n1

Row | melting point | SMILES
25 | 51 to 54 °C | CCC(=O)c1ccc(OC)c(Cl)c1Cl
26 | 70 to 71 °C | BrCOc1cccc(OCc2ccccc2)c1
27 | 142 to 143 °C | CCCCc1nc2ccn(Cc3ccc([N+](=O)[O-])cc3)c(=O)c2n1Cc1ccc([N+](=O)[O-])cc1
28 | 199 to 200 °C | CCC(=O)N(CC)c1cccc(-c2ccc3nnc(N)n3n2)c1
29 | 95 to 97 °C | [O-][N+](O)=CCN=Nc1ccccc1
30 | 267 to 268 °C | O=[N+]([O-])c1ccc(Cl)c(S)c1
31 | 150 to 153 °C | O=C(O)C=Cc1ccc(Oc2c(-c3ccc(O)cc3)ccc3cc(O)ccc23)cc1
32 | 131 to 133 °C | CN(C)CC1CCCCN1CCCNC(=O)N1c2ccccc2NC(=O)c2ccccc21 (centres undefined)
33 | > 300 °C | CC(C)(C)OC(=O)NC1CCN(c2ccc(C(=O)O)cc2)CC1
34 | 130 °C | CC1(C)COC(=S)N(Cc2ccccc2NS(=O)(=O)C(F)(F)F)C1
35 | 44 to 46 °C | Cc1ncsc1C(O)c1ccoc1 (centres undefined)
36 | 128 °C | COc1cc(Nc2nccc(NC3CCCCC3)n2)cc(OC)c1OC
37 | 133 to 134 °C | CC(=C1SCCCS1)c1cccc(OCC(=O)O)c1
38 | 106 to 109 °C | CC(=O)CC(=O)OCN1C(=O)c2ccccc2C1=O
39 | 90 to 91 °C | CCOC(=O)COc1ccc(Oc2ccc([N+](=O)[O-])cc2)c(Cl)c1Cl
40 | 132 to 134 °C | Cn1c(-c2ccccc2[N+](=O)[O-])nc2ccccc21
41 | 94 to 96 °C | c1cc(CSSc2nc3ccccc3s2)cc(CSSc2nc3ccccc3s2)c1
42 | 120 to 121 °C | CCCCSc1c[nH]nc1C1=CCCN(C)C1
43 | 121 to 123 °C | CN1CCN(C(=O)[C@H](CC(N)=O)NC(=O)CCc2ccc(OCc3ccccc3)cc2OCc2ccccc2)CC1
44 | 107 °C | N#Cc1csc2c1CCN(C(=O)C(F)(F)F)CC2c1ccccc1 (centres undefined)
45 | 222 to 225 °C | Nc1n[nH]c2cc(Br)ccc12
46 | 141 to 143 °C | CC(C)N1C(=O)CCCc2cc(Nc3ncc(Cl)c(N[C@@H]4CCCC[C@H]4NS(C)(=O)=O)n3)ccc21
47 | 185 to 186 °C | Cc1nnc(-c2ccc3occ(-c4cc(F)ccc4F)c3n2)o1
48 | 120 to 139 °C | CN1CCC2(C#N)C(C1)C1CN(C)C2C=C1C(=O)c1ccccc1 (centres undefined)

Row | melting point | SMILES
49 | 129 to 131 °C | CN(C)c1ccc(C(=O)c2cc(C(F)(F)F)cc(C(F)(F)F)c2)cc1
50 | 131 °C | COc1ccc2cc([C@H](C)C(=O)OCCN3CCC(C)(SN=O)CC3)ccc2c1
51 | 156 to 158 °C | Cc1ccc(-c2cc3cc(-c4ccccc4)ccc3o2)cc1
52 | 135 to 138 °C | CCOCCOC(=O)C1=C(C)NC(COC(N)=O)=C(C(=O)OCC)C1c1cccc([N+](=O)[O-])c1 (centres undefined)
53 | 224 to 226 °C | CC(C)(C)CNc1nc(-c2[nH]c(C(C)(C)C)nc2-c2ccccc2)ccc1[N+](=O)[O-]
54 | 163 to 165 °C | Cc1c(=O)n(Cc2ccc(C(=O)OC(C)(C)C)cc2)c(=O)n2ccsc12
55 | 50 to 55 °C | CC(C)C[C@H](NC(=O)OC(C)(C)C)C(=O)NCCCC(c1ccc(F)cc1)c1ccc(F)cc1
56 | 83 °C | CCCC(=O)C1=C(O)CC(c2c(C)c(C)c3c(c2C)CC(C)(C)O3)CC1=O (centres undefined)
57 | 80 to 82 °C | CC(C(=O)O)c1c(Sc2ccccc2)c2cc(F)ccc2n1Cc1ccc(Cl)cc1 (centres undefined)
58 | 156 to 157 °C | CCC(=NOC)c1cc(I)c(O)c(CN)c1
59 | 235 °C | Cc1nc(NC(=O)c2cnn3c(C(F)(F)F)cc(-c4ccc(C(F)(F)F)cc4)nc23)sc1S(=O)(=O)NCCN(C)C
60 | 136 to 139 °C | CCCCCCCCCCCCNC1=NS(=O)(=O)N=C1NCCSCc1ccc(CN(C)C)o1
61 | 191 to 192 °C | COc1cc(Nc2nccc(-c3cccc(O)c3)n2)cc(OC)c1OC
62 | 90 °C | COc1cc2c(cc1OC)C(O)(c1ccccn1)CC(C)(C)CO2 (centres undefined)
63 | 132 to 133 °C | CS(=O)(=O)c1ccccc1SCc1ccccc1
64 | 105 to 109 °C | CCOC(=O)NN=C(c1ccc(Cl)cc1)c1ccc(CSC)cc1
65 | 158 to 159 °C | CS(=O)CCNC(=O)c1cccc(-c2cccc(Oc3cc(Cl)cc(Cl)c3)n2)c1 (centres undefined)
66 | 169 to 171 °C | CCOC(=O)C(=CNc1cc(C)nc(-c2ccncc2)n1)C(=O)OCC
67 | 141 to 142 °C | O=C(O)C(=O)CC(=O)c1cn(Cc2ccccc2)c2ccccc2c1=O
68 | 115 to 116 °C | CCCc1c(OCCCC#CC(=O)O)ccc(C(C)=O)c1O
69 | 90 °C | CC(C)(SCc1cc2cc(C(F)(F)F)ccc2n1S(=O)(=O)c1ccccc1)C(=O)O
70 | 181 to 183 °C | CCOC=Nc1[nH]nc(Nc2cccc(OC)c2)c1C#N
71 | 152 to 155 °C | Cc1c(NC(=O)c2ccc(-c3cccc(NC(=O)C(C)C)c3)cc2)ccc2cc(CN3CCCC3)cnc12
72 | 39 to 41 °C | O=Cc1cc(-c2ccc(F)cc2F)ccc1OC(F)(F)F

Row | melting point | SMILES
73 | 240 to 242 °C | O=C1C(=O)c2ccc(-c3cccnc3)cc2C2=C1SCC1(CCN(C(=O)c3cccc(Cl)c3)CC1)O2
74 | 291 to 292 °C | NC(=O)c1cc(N)c(Oc2ccccc2)c(S(N)(=O)=O)c1
75 | 90 to 92 °C | N#Cc1cc2ccc(OCC3CO3)cc2o1 (centres undefined)
76 | 107 to 109 °C | COc1nc2cc(F)cc(C)c2nc1OC
77 | 176 to 178 °C | CN1CCN(C(=O)c2cccc3cc[nH]c23)CC1
78 | 134 to 136 °C | CCOC(=O)c1cnc(-c2ccccc2OC(C)CC)[nH]c1=O (centres undefined)
79 | 66 °C | CC(C(=O)N(C)CCO)c1cc(C(C)(C)C)c(O)c(C(C)(C)C)c1 (centres undefined)
80 | 77 to 79 °C | COC1OC(=O)c2c(O)cccc21 (centres undefined)
81 | 174 to 176 °C | Cc1nc(C)c(CO)c(-c2ccc(F)cc2)n1
82 | 183 to 185 °C | CC(=O)NCc1ccc2c(c1)CN(C1CCC(=O)NC1=O)C2=O (centres undefined)
83 | 179 to 181 °C | CC1=C(C(=O)OC(C)C)C(c2cccc(Cl)c2Cl)N(C(=O)OC(C)C)C(=S)N1 (centres undefined)
84 | 84 °C | CCN(CC)C(=O)Oc1nc(-c2ccc(OC)cc2)cc2ccccc12
85 | 151 to 156 °C | COc1ccc(CN2C(=O)c3c(-c4ccccc4Cl)cc4c(c3C2=O)c2cc(OC)ccc2n4CC(O)CO)c(OC)c1 (centres undefined)
86 | 140 to 145 °C | CCC1(CC)C(=O)NC(C)(C)C(C)(C)N1OC(C)(C)C#N
87 | 112 to 118 °C | CC(C)(C)n1ncc(OCc2ccc(OCC(F)(F)C(F)F)nc2)c(Cl)c1=O
88 | 93 °C | COC(=O)C1CCn2c1cc(Br)c2C(=O)c1ccccc1 (centres undefined)
89 | 130 to 133 °C | COc1ccc(C(=O)Nc2ccccc2)cc1NCc1ccc(C#N)cc1
90 | 102 to 103 °C | COC(=O)c1cc(OCc2ccccc2)c(OCc2ccccc2)c(OCc2ccccc2)c1
91 | 124 to 125 °C | CCc1csc(NC(=O)Nc2ccc(N3CCN(C(=O)Nc4ccc(OCCO)cc4C(F)(F)F)CC3)cc2)n1
92 | > 300 °C | CCOC(=O)c1ccc2c(c1)C(=O)CC(c1ccccc1)=N2
93 | 146 to 148 °C | COc1cc(Cc2nc(NC(C)(C)C)c3c(C)c(C#N)sc3n2)cc(OC)c1OC

Row | SMILES | melting point
94 | Cc1nnc(S(=O)(=O)C(Br)(Br)Br)s1 | 169 to 173 °C
95 | NC(=O)c1ccc([N+](=O)[O-])c(N2CC2)c1 | 223 to 224 °C
96 | CC1N=C(c2ccccn2)c2cc(Br)ccc2NC1=O (centres undefined) | 227 to 229 °C
97 | COC12CC(c3nnc(-c4cncc(Br)c4)[nH]3)CN(C)C1Cc1c[nH]c3cccc2c13 (centres undefined) | 142 to 146 °C
98 | COc1cc(C(=O)O)c(O)c2c1C(C)(C)CCC2(C)C | 213 °C
99 | FC(F)(F)C1(c2cc(Cl)cc(Cl)c2)CC(c2ccc(-n3cncn3)cc2)=NO1 (centres undefined) | > 250 °C
